Among the data in ChEMBL document CHEMBL6127082, “Genome-Led Discovery of the Antibacterial Cyclic Lipopeptide Kutzneridine A and Its Silent Biosynthetic Gene Cluster from Kutzneria Species” (2024) are MIC95 and Activity values, retold here.

Values after ≈ are worked out from the molar mass of the structure shown. Active and inactive are the calls of the source. The rule behind the calls is not given here.

The test system of assay [1] is Staphylococcus aureus. Nature of the assay: Antibacterial activity against methicillin-resistant Staphylococcus aureus assessed as inhibition of bacterial growth. The class given is functional.
Another assay concerns Acinetobacter baumannii. The assay is described as follows: Antibacterial activity against Acinetobacter baumannii ATCC19606 assessed as inhibition of bacterial growth. The class given is functional, organism-based.
The test system of assay [2] is Enterococcus faecium. Nature of the assay: Antibacterial activity against vancomycin B-resistant Enterococcus faecium assessed as inhibition of bacterial growth. The class given is functional.
For another assay, the system named is Aspergillus fumigatus. The assay is described as follows: Antifungal activity against Aspergillus fumigatus ATCC46645 assessed as inhibition of […] growth. The class given is functional, organism-based.
Assay [3] concerns Staphylococcus aureus. Nature of the assay: Antibacterial activity against methicillin-resistant Staphylococcus aureus MB5395 assessed as inhibition of bacterial growth. The class given is functional.
The subject of assay [4] is Enterococcus faecium. The assay is described as follows: Antibacterial activity against vancomycin A-resistant Enterococcus faecium assessed as inhibition of bacterial growth. The class given is functional.

Take `CCCCC/C=C/C=C/C(=O)NC[C@@H]1NC(=O)CNC(=O)[C@@H](N)CNC(=O)[C@@H](Cc2ccc(OC)cc2)NC1=O`: the MIC95 with Staphylococcus aureus [1] amounted to 16 µg/mL (≈ 28.7 µM).
Consider `CCCCC/C=C/C=C/C(=O)NC[C@@H]1NC(=O)CN2C(=O)[C@H](CNC(=O)[C@@H](Cc3ccc(OC)cc3)NC1=O)NC2(C)C`, for which the result with Acinetobacter baumannii and in the assay with Aspergillus fumigatus was inactive. Moreover, the MIC95 with Enterococcus faecium [2] turned out to be 8 µg/mL (≈ 13.4 µM); with Staphylococcus aureus [1] it was 16 µg/mL (≈ 26.8 µM); in the assay with Staphylococcus aureus [3], 4 µg/mL (≈ 6.7 µM); in the assay with Enterococcus faecium [4], 16 µg/mL (≈ 26.8 µM).
